Measured values: the supplement of paper PMC10307832

Key:
Assay in all cases: relative viability (nuclei count vs DMSO), 5 days (fraction); higher = more cells survive
[1] = compound: CC1=CC=C(C=C1)C(=O)CN2C3=C(CCCC3)SC2=N [Pifithrin_alpha] + O=C(CCCCCCC(=O)Nc1ccccc1)NO [Vorinostat] (partner 1 µM)
Method in brief: (§1)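 Cells from lung cancer lines were seeded into 1536-well plates and, one day later, dosed by pin tool. Treatments were either a single drug or a fixed dose of an anchor drug with five library-drug doses (not always all listed) in √10 steps. After 5 days, nuclei were stained in a one-step fixation (final 0.05% Triton X-100, 1% formaldehyde, 1 ug/ml Hoechst) and counted on 4× images, and relative viability is the treated-to-vehicle nuclei ratio, as the median of duplicate plates.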

Axitinib + OSI-027 = compound: CNC(=O)c1ccccc1Sc1ccc2c(/C=C/c3ccccn3)n[nH]c2c1 [Axitinib] + COc1cccc2cc(-c3nc([C@H]4CC[C@H](C(=O)O)CC4)n4ncnc(N)c34)[nH]c12 [OSI-027] (partner 0.5 µM)
Method in brief: as §1

[2] = compound: CC1=CC=C(C=C1)C(=O)CN2C3=C(CCCC3)SC2=N [Pifithrin_alpha] + COc1cccc2cc(-c3nc([C@H]4CC[C@H](C(=O)O)CC4)n4ncnc(N)c34)[nH]c12 [OSI-027] (partner 0.5 µM)
Method in brief: as §1

Bemcentinib + Alpelisib = compound: Nc1nc(Nc2ccc3c(c2)CC[C@@H](N2CCCC2)CC3)nn1-c1cc2c(nn1)-c1ccccc1CCC2 [Bemcentinib] + Cc1nc(NC(=O)N2CCC[C@H]2C(N)=O)sc1-c1ccnc(C(C)(C)C(F)(F)F)c1 [Alpelisib] (partner 2 µM)
Method in brief: as §1

Cell Line	relative viability ([1]; first compound 1 µM)	relative viability ([1]; first compound 3.162 µM)	relative viability ([1]; first compound 10 µM)	relative viability ([1]; first compound 31.62 µM)	relative viability ([1]; first compound 100 µM)	relative viability (Axitinib + OSI-027; first compound 0.005 µM)	relative viability (Axitinib + OSI-027; first compound 0.01581 µM)	relative viability (Axitinib + OSI-027; first compound 0.05 µM)	relative viability (Axitinib + OSI-027; first compound 0.1581 µM)	relative viability (Axitinib + OSI-027; first compound 0.5 µM)	relative viability ([2]; first compound 1 µM)	relative viability ([2]; first compound 3.162 µM)	relative viability ([2]; first compound 10 µM)	relative viability ([2]; first compound 31.62 µM)	relative viability ([2]; first compound 100 µM)	relative viability (Bemcentinib + Alpelisib; first compound 0.04 µM)	relative viability (Bemcentinib + Alpelisib; first compound 0.1265 µM)	relative viability (Bemcentinib + Alpelisib; first compound 0.4 µM)	relative viability (Bemcentinib + Alpelisib; first compound 1.265 µM)	relative viability (Bemcentinib + Alpelisib; first compound 4 µM)
SK-MES-1	1.01	0.95	0.959	0.591	0.852	0.748	0.647	0.638	0.642	0.854	0.575	0.59	0.527	0.396	0.511	0.914	0.973	0.998	1.08	1.08
NCI-H2170	0.791	0.873	0.837	0.681	0.842	0.721	0.686	0.703	0.715	0.631	0.729	0.673	0.7	0.556	0.558	0.844	0.766	0.842	1.01	0.882
NCI-H441	0.766	0.735	0.876	–	0.931	0.736	0.604	0.681	0.541	0.748	0.524	0.662	0.614	–	0.542	0.86	0.74	0.756	0.467	0.976
NCI-H2087	0.777	0.877	0.968	0.672	0.618	0.622	0.558	0.696	0.562	0.831	0.417	0.499	0.483	–	0.605	0.886	1.43	1.09	0.949	1.13
RERF-LC-KJ	0.329	0.627	0.547	0.448	0.488	0.701	0.529	0.553	0.503	0.61	0.586	0.477	0.421	0.393	0.317	0.748	0.785	0.91	0.859	0.919
NCI-H1437	0.78	0.619	0.565	0.468	0.356	0.905	0.832	0.872	0.846	0.847	1.06	0.903	0.905	0.65	0.41	0.961	1.03	1.16	1.01	1.01
NCI-H1651	0.148	0.553	0.476	0.533	0.563	0.73	0.683	0.725	0.601	0.674	0.682	0.664	0.666	0.449	0.6	0.935	1.01	1.12	0.964	1.02
PC-14	0.626	0.77	0.802	0.414	0.625	0.916	0.717	0.975	0.82	1.41	0.822	0.889	0.827	0.464	0.605	0.995	1.01	0.925	0.985	1.04
NCI-H1666	0.96	0.962	0.723	0.771	0.793	1.01	0.86	0.88	0.825	0.855	0.789	0.771	0.651	0.642	0.585	0.869	1.05	0.941	1.02	1.02
NCI-H661	0.8	0.805	0.788	0.662	0.771	0.741	0.754	0.721	0.617	0.855	0.691	0.707	0.678	0.514	0.579	0.374	0.821	0.624	0.358	0.599
LK-2	0.29	0.257	0.255	0.256	0.353	0.202	0.168	0.193	0.191	0.186	0.192	0.213	0.185	0.17	0.169	1.1	1.22	1.27	1.15	1.31
HCC-44	1.04	0.924	0.91	0.834	0.902	0.451	0.439	0.404	0.605	0.614	0.39	0.391	0.481	0.324	0.268	0.875	0.911	0.939	0.967	1.05
PC-3 [JPC-3]	–	0.61	–	0.609	0.639	0.762	0.668	0.809	0.72	0.915	0.676	0.747	0.574	0.545	0.618	0.986	1.1	0.985	1.1	1.08
LC-2-ad	0.692	0.719	0.689	0.465	0.521	0.932	0.827	0.907	0.8	0.807	–	0.84	0.797	–	0.675	0.877	0.969	0.907	0.822	0.852
NCI-H460	0.797	0.397	0.182	0.0968	0.178	0.692	0.603	0.665	0.645	0.79	0.613	0.541	0.397	0.274	0.48	0.595	0.556	0.487	0.602	0.584
NCI-H1395	–	0.662	0.723	–	0.661	0.595	0.595	0.736	0.581	0.633	0.541	0.629	0.617	0.432	0.643	1	1.26	1.12	1.03	1.29
NCI-H727	0.461	1.18	1.14	0.777	1.35	0.785	0.425	0.54	0.528	0.699	0.394	0.577	0.579	–	0.404	0.528	0.576	0.492	0.491	0.621

Cell Line	relative viability ([1]; first compound 1 µM)	relative viability ([1]; first compound 3.162 µM)	relative viability ([1]; first compound 10 µM)	relative viability ([1]; first compound 31.62 µM)	relative viability ([1]; first compound 100 µM)	relative viability (Axitinib + OSI-027; first compound 0.005 µM)	relative viability (Axitinib + OSI-027; first compound 0.01581 µM)	relative viability (Axitinib + OSI-027; first compound 0.05 µM)	relative viability (Axitinib + OSI-027; first compound 0.1581 µM)	relative viability (Axitinib + OSI-027; first compound 0.5 µM)	relative viability ([2]; first compound 1 µM)	relative viability ([2]; first compound 3.162 µM)	relative viability ([2]; first compound 10 µM)	relative viability ([2]; first compound 31.62 µM)	relative viability ([2]; first compound 100 µM)	relative viability (Bemcentinib + Alpelisib; first compound 0.04 µM)	relative viability (Bemcentinib + Alpelisib; first compound 0.1265 µM)	relative viability (Bemcentinib + Alpelisib; first compound 0.4 µM)	relative viability (Bemcentinib + Alpelisib; first compound 1.265 µM)	relative viability (Bemcentinib + Alpelisib; first compound 4 µM)
NCI-H838	0.593	0.591	0.555	0.567	0.525	0.5	0.361	0.436	0.38	0.493	0.381	0.35	0.349	0.263	0.258	0.961	1.19	1.08	1.01	1.04
NCI-H1755	0.773	0.853	0.694	0.599	0.724	0.772	0.783	0.724	0.674	0.894	0.57	0.687	0.675	0.525	0.566	0.98	1.03	1.02	1.06	1.04
EMC-BAC-2	–	0.413	–	0.328	0.413	0.409	0.374	0.359	0.426	0.409	0.329	0.386	0.358	–	0.353	0.833	0.756	0.817	0.788	0.803
EKVX	–	0.597	0.549	0.636	0.572	0.708	0.708	0.746	0.737	0.69	0.668	–	0.569	0.734	0.604	0.913	1.01	0.929	0.973	0.972
NCI-H647	0.514	0.565	0.592	0.482	0.53	0.703	0.617	0.69	0.551	0.787	0.589	0.757	0.556	0.517	0.57	1.1	1.22	1.25	1.13	1.08
NCI-H358	0.733	0.708	0.867	0.344	0.545	0.785	0.737	0.874	0.681	1.02	0.761	0.797	0.658	0.629	0.528	0.97	0.826	1.04	0.826	0.971
LU99A	0.491	0.646	0.373	–	0.463	0.314	0.317	0.342	0.289	0.304	0.266	0.27	0.273	0.23	0.281	0.453	0.584	0.591	0.542	0.569
NCI-H1734	0.715	0.776	0.773	0.537	0.75	0.586	0.57	0.656	0.623	0.644	0.58	0.633	0.585	0.482	0.491	1.04	0.74	0.718	0.372	0.514
HARA	–	0.558	0.674	0.468	0.513	0.445	0.414	0.666	0.49	0.802	–	0.482	0.58	–	0.441	0.759	0.918	0.822	0.866	0.936
NCI-H2228	0.831	0.663	0.721	0.387	0.374	0.518	0.611	0.716	0.532	0.659	0.589	0.574	0.526	0.392	0.283	–	0.636	0.881	0.809	0.959
HCC-827	0.156	0.894	0.765	0.709	0.787	0.822	0.745	0.826	0.759	0.933	0.807	0.912	0.823	0.713	0.774	0.999	1.02	0.909	0.957	0.982
EPLC-272H	0.472	0.419	0.244	0.177	0.27	0.3	0.286	0.248	0.293	0.283	0.227	0.307	0.245	0.244	0.256	–	0.991	0.951	0.977	1.07
SW 1573	–	0.787	0.719	0.498	0.82	0.592	0.592	0.68	0.508	0.724	0.662	0.601	0.572	0.422	0.76	0.716	0.803	0.909	0.886	0.88
LXF-289	0.718	0.805	0.79	0.662	0.782	0.76	0.727	0.785	0.763	0.877	0.53	0.766	0.737	0.68	0.729	1.09	1.05	1.02	1.06	1.05
SK-LU-1	0.94	0.862	0.774	0.676	0.75	0.396	0.374	0.37	0.409	0.415	0.353	0.353	0.354	–	0.3	1.08	1.13	1.1	1.1	1.1
NCI-H23	0.457	0.4	0.604	0.343	0.584	0.66	0.568	0.617	0.652	0.699	0.627	0.535	0.446	–	0.535	0.725	0.745	0.814	0.758	0.806
